# US20160158200A1, “Combinations of Hepatitis C Virus Inhibitors” (priority 2013, published 2016)
# System: HCV genotype-1a variant with glutamine 30 changed to glutamate in the NS5A protein
# Type: cell-based
# Conditions: test compound titrated with BMS-790052 fixed at 200 nM; genotype 1a Q30E replicon
# Procedure, shortened: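 Synergy was assessed by combining several fixed amounts of an NS5A-targeting compound with a titration of the second compound of interest.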
row,Compound,Fold-Synergistic 1a (Q30E) [fold]
1,CC(C)C(NC(=O)C1CC(F)CN1C(=O)OC(C)(C)C)c1nc(-c2ccc(-c3ccc(-c4c[nH]c(C(NC(=O)C5CC(F)CN5C(=O)OC(C)(C)C)C(C)C)n4)cc3)cc2)c[nH]1 (stereo not drawn) [Compound W-181],>100
2,CC(C)[C@H](NC(=O)c1cc(Cl)ccc1F)c1ncc(-c2ccc(-c3ccc(-c4cnc([C@@H](NC(=O)c5cc(Cl)ccc5F)C(C)C)[nH]4)cc3)cc2)[nH]1 [Compound Y-24],>100
3,CC1CC(C(=O)NC(c2nc(-c3ccc(-c4ccc(-c5c[nH]c(C(NC(=O)C6CC(C)CN6C(=O)OC(C)(C)C)C6(C)CC6)n5)cc4)cc3)c[nH]2)C2(C)CC2)N(C(=O)OC(C)(C)C)C1 (stereo not drawn) [Compound W-71],>100
4,CC(C)(C)C(NC(=O)C1CCCCC1c1ccccc1)c1nc(-c2ccc(-c3ccc(-c4c[nH]c(C(NC(=O)C5CCCCC5c5ccccc5)C(C)(C)C)n4)cc3)cc2)c[nH]1 (mixture of isomers) [Compound S-269],>100
5,Cc1oncc1C(=O)N[C@H](c1ncc(-c2ccc(-c3ccc(-c4cnc([C@@H](NC(=O)c5cnoc5C)C(C)C)[nH]4)cc3)cc2)[nH]1)C(C)C [Compound S-104],>100
6,C=CC(C)(C)C(=O)N[C@H](c1nc(-c2ccc(-c3ccc(-c4cnc([C@@H](NC(=O)C(C)(C)C=C)C(C)(C)C)[nH]4)cc3)cc2)c[nH]1)C(C)(C)C.O=C(O)C(F)(F)F [Compound B-166],>100
7,"CC(C)[C@H](NC(=O)C1CCCCO1)c1ncc(-c2ccc(-c3ccc(-c4cnc([C@@H](NC(=O)C5CCCCO5)C(C)C)[nH]4)cc3)cc2)[nH]1 (single isomer, unassigned) [Compound Y-57]",>100
8,Cc1ccc(C)c(C(=O)N[C@H](c2ncc(-c3ccc(-c4ccc(-c5cnc([C@@H](NC(=O)c6cc(C)ccc6C)C(C)C)[nH]5)cc4)cc3)[nH]2)C(C)C)c1 [Compound S-71],>100
9,CC(C)[C@H](NC(=O)C(C)(C)C)c1ncc(-c2ccc(-c3ccc(-c4cnc([C@@H](NC(=O)C(C)(C)C)C(C)C)n4C)cc3)cc2)n1C [Compound B-205],<10
10,CC(C)[C@H](NC(=O)C(C)(C)F)c1nc(-c2ccc(-c3ccc(-c4c[nH]c([C@@H](NC(=O)C(C)(C)F)C(C)C)n4)c(F)c3)cc2)c[nH]1.O=C(O)C(F)(F)F [Compound N-90],>100
11,CC1([C@H](NC(=O)C2(C)CCCC[C@@H]2O)c2ncc(-c3ccc(-c4ccc(-c5cnc([C@@H](NC(=O)C6(C)CCCC[C@@H]6O)C6(C)CC6)[nH]5)cc4)cc3)[nH]2)CC1 (stereo partly drawn) [Compound Y-116],>100
12,CC(C)[C@H](NC(=O)C1CC(F)(F)C1)c1ncc(-c2ccc3c(c2)Cc2cc(-c4cnc([C@@H](NC(=O)C5CC(F)(F)C5)C(C)C)[nH]4)ccc2-3)[nH]1.O=C(O)C(F)(F)F [Compound N-71],>100
13,"CC(C)(C)OC(=O)N1CCCCC1(C)C(=O)N[C@H](c1nc(-c2ccc(-c3ccc(-c4c[nH]c([C@@H](NC(=O)C5(C)CCCCN5C(=O)OC(C)(C)C)C(C)(C)C)n4)cc3)cc2)c[nH]1)C(C)(C)C (single isomer, unassigned) [Compound L-46a]",>100
14,CC(C)(F)C(=O)N[C@H](c1nc(-c2ccc(-c3ccc(-c4c[nH]c([C@@H](NC(=O)C(C)(C)F)C(C)(C)C)n4)cc3)cc2)c[nH]1)C(C)(C)C [Compound N-115],>100
15,CC(C)(C)[C@H](NC(=O)C(O)(CF)CF)c1nc(-c2ccc(-c3ccc(-c4c[nH]c([C@@H](NC(=O)C(O)(CF)CF)C(C)(C)C)n4)cc3)cc2)c[nH]1 [Compound N-140],>100
16,CCCCOC(=O)N[C@H](c1ncc(-c2ccc(-c3ccc(-c4cnc([C@@H](NC(=O)OCCCC)C(C)C)[nH]4)cc3)cc2)[nH]1)C(C)C [Compound S-209],>100
17,"CC(O)C1(C(=O)N[C@H](c2ncc(-c3ccc(-c4ccc(-c5cnc([C@@H](NC(=O)C6(C(C)O)CC6)C(C)(C)C)[nH]5)cc4)cc3)[nH]2)C(C)(C)C)CC1 (single isomer, unassigned) [Compound B75]",>100
18,CC(C)(C)[C@H](NC(=O)C1(NC(=O)C2CC2)CCCCC1)c1nc(-c2ccc(-c3ccc(-c4c[nH]c([C@@H](NC(=O)C5(NC(=O)C6CC6)CCCCC5)C(C)(C)C)n4)cc3)cc2)c[nH]1 [Compound W-264],>100
19,CCCCOC(=O)N[C@@H](C(=O)N[C@H](c1ncc(-c2ccc(-c3ccc(-c4cnc([C@@H](NC(=O)[C@H](NC(=O)OCCCC)C(C)C)C(C)C)[nH]4)cc3)cc2)[nH]1)C(C)C)C(C)C [Compound S-249],>100
20,CC(C)(C)C(=O)N[C@H](c1ncc(C#Cc2ccc3cc(-c4cnc([C@@H](NC(=O)C(C)(C)C)C(C)(C)C)[nH]4)ccc3c2)[nH]1)C(C)(C)C [Compound B2],>100

row,Compound,Fold-Synergistic 1a (Q30E) [fold]
1,"CC(C)(C)[C@H](NC(=O)[C@@]1(C)CCC(F)(F)CO1)c1nc(-c2ccc(-c3ccc(-c4c[nH]c([C@@H]5CCCN5C(=O)c5nccc6c(Cl)cccc56)n4)cc3)cc2)c[nH]1 [Compound Y-85, (R)—N—((S)-1-(4-(4′-(2-((S)-1-(5-chloroisoquinoline-1-carbonyl)pyrrolidin-2-yl)-1H-imidazol-4-yl)-[1,1′-biphenyl]-4-yl)-1H-imidazol-2-yl)-2,2-dimethylpropyl)-5,5-difluoro-2-methyltetrahydro-2H-pyran-2-carboxamide]",>100
2,CC(C)[C@H](NC(=O)CC1CCCCC1)c1ncc(-c2ccc(-c3ccc(-c4cnc([C@@H](NC(=O)CC5CCCCC5)C(C)C)[nH]4)cc3)cc2)[nH]1 [Compound S-26],>100
3,CC(C)[C@H](NC(=O)C1CCCC1)c1ncc(-c2ccc(-c3ccc(-c4cnc([C@@H](NC(=O)C5CCCC5)C(C)C)[nH]4)cc3)cc2)[nH]1 [Compound S-23],>100
4,"CC(C)[C@H](NC(=O)C1(C(C)O)CC1)c1ncc(-c2ccc(-c3ccc(-c4cnc([C@@H](NC(=O)C5(C(C)O)CC5)C(C)C)n4C)cc3)cc2)n1C (single isomer, unassigned) [Compound B-204]",>10
5,"CC1(C)CC1C(=O)N[C@H](c1ncc(-c2ccc(-c3ccc(-c4cnc([C@@H](NC(=O)C5CC5(C)C)C(C)(C)C)[nH]4)cc3)cc2)[nH]1)C(C)(C)C (single isomer, unassigned) [Compound B81]",>100
6,CC(C)[C@H](NC(=O)c1cccc(Cl)c1Cl)c1ncc(-c2ccc(-c3ccc(-c4cnc([C@@H](NC(=O)c5cccc(Cl)c5Cl)C(C)C)[nH]4)cc3)cc2)[nH]1 [Compound S-66],>100
7,COC(=O)N1C2CCC1(C(=O)N[C@H](c1nc(-c3ccc(-c4ccc(-c5c[nH]c([C@@H](NC(=O)C67CCC(CC6)N7C(=O)OC)C(C)(C)C)n5)cc4)cc3)c[nH]1)C(C)(C)C)CC2.O=C(O)C(F)(F)F.O=C(O)C(F)(F)F [Compound W-117],>100
8,CC(C)[C@H](NC(=O)[C@H](NC(=O)OCc1ccccc1)C(C)C)c1ncc(-c2ccc(-c3ccc(-c4cnc([C@@H](NC(=O)[C@H](NC(=O)OCc5ccccc5)C(C)C)C(C)C)[nH]4)cc3)cc2)[nH]1 [Compound S-245],>100
9,"CC1(C(=O)N[C@H](c2nc(-c3ccc(-c4ccc(-c5c[nH]c([C@@H](NC(=O)C6(C)CCCCC6O)C(C)(C)C)n5)cc4)cc3)c[nH]2)C(C)(C)C)CCCCC1O (single isomer, unassigned) [Compound Y-105]",>100
10,"CC1(O)CC(C(=O)N[C@H](c2nc(-c3ccc(-c4ccc(-c5c[nH]c([C@@H](NC(=O)C6CC(C)(O)C6)C(C)(C)C)n5)cc4)cc3)c[nH]2)C(C)(C)C)C1 (single isomer, unassigned) [Compound W-170]",>100
11,CC(C)(C)C(=O)N[C@H](c1nc(-c2ccc(-c3cnc(-c4c[nH]c([C@@H](NC(=O)C(C)(C)C)C(C)(C)C)n4)cn3)cc2)c[nH]1)C(C)(C)C.O=C(O)C(F)(F)F [Compound N-105],>100
12,CC(C)[C@H](NC(=O)C1(C)CCCCC1)c1ncc(-c2ccc3c(c2)Cc2cc(-c4cnc([C@@H](NC(=O)C5(C)CCCCC5)C(C)C)[nH]4)ccc2-3)[nH]1.O=C(O)C(F)(F)F [Compound N-69],>100
13,CN(C)C(=O)C(=O)NC1(C(=O)N[C@H](c2nc(-c3ccc(-c4ccc(-c5c[nH]c([C@@H](NC(=O)C6(NC(=O)C(=O)N(C)C)CCCCC6)C(C)(C)C)n5)cc4)cc3)c[nH]2)C(C)(C)C)CCCCC1 [Compound W-268],>100
14,CC(C)(C)[C@H](NC(=O)C12CCC(F)(CC1)CC2)c1nc(-c2ccc(-c3ccc(-c4c[nH]c([C@@H](NC(=O)C56CCC(F)(CC5)CC6)C(C)(C)C)n4)cc3)cc2)c[nH]1 [Compound P-40],>100
15,"CC(C)(C)[C@H](NC(=O)C1(CO)CCCO1)c1nc(-c2ccc(-c3ccc(-c4c[nH]c([C@@H](NC(=O)C5(CO)CCCO5)C(C)(C)C)n4)cc3)cc2)c[nH]1 (single isomer, unassigned) [Compound Y-112]",>100
16,Cc1cc(-c2ccc(-c3c[nH]c([C@@H](NC(=O)c4ccc(Cl)s4)C(C)C)n3)cc2)ccc1-c1c[nH]c([C@@H](NC(=O)c2ccc(Cl)s2)C(C)C)n1.O=C(O)C(F)(F)F [Compound N-83],>100
17,CC(C)(C)OC(=O)NC1(C(=O)NC(c2nc(-c3ccc(-c4ccc(-c5c[nH]c(C(NC(=O)C6(NC(=O)OC(C)(C)C)CCC(F)(F)CC6)C(C)(C)C)n5)cc4)cc3)c[nH]2)C(C)(C)C)CCC(F)(F)CC1 [Compound L-49],>100
18,CC(C)(C)[C@H](Nc1ncc(Br)cn1)c1nc(-c2ccc(-c3ccc(-c4c[nH]c([C@@H](Nc5ncc(Br)cn5)C(C)(C)C)n4)cc3)cc2)c[nH]1 [Compound W-16A],>10
19,CC(C)[C@H](NC(=O)C1CCC(F)(F)CC1)c1ncc(-c2ccc(-c3ccc(-c4cnc([C@@H](NC(=O)C5CCC(F)(F)CC5)C(C)C)n4C)cc3)cc2)n1C [Compound B-200],<10
